Results: US20180085386A1, “URIDINE MONOPHOSPHATE AND TRIPHOSPHATE DERIVATIVES, COMPOSITIONS AND METHODS OF USE” (Tufts University, priority 2016, published 2018)

What was measured:
[1] = tested on: PSAPP mice; test: Contextual fear conditioning test (freezing); type: in vivo, mouse; conditions: vs vehicle
Protocol: In this study, the diphosphate derivative of compound 5 was injected intraperitoneally into 6 to 7-month-old PSAPP and WT mice daily at two different doses, i.e., 1 μg/kg or 1 mg/kg of the diphosphate derivative of compound 5 (in 1% DMSO/PBS) for 7 consecutive days. Consistent with the results observed following acute UDP or PSB0474 treatment, treatment with the diphosphate derivative of compound 5 increased total freezing percentage in the context test in PSAPP mice (FIG. 4). […] FIG. 4 depicts the results of experiments using the contextual fear conditioning test with PSAPP mice treated with vehicle control (black bar at center of graph). […]
In this study, treatment of PSAPP mice commenced when the mice were pre-symptomatic. […] Following treatment, mice were assessed in a fear conditioning task for memory formation. Subsequently, plaque burden in the mice was also evaluated. […]
Treatment with compound 5 prevented impairments in contextual fear memory. […] Memory is assessed by the percent time that mice “freeze” 24 hours after a fear inducing electric shock. […]
In this study, treatment of PSAPP mice commenced when the mice were pre-symptomatic. […] Following treatment, mice were assessed for the following: concentration of circulating pro-inflammatory cytokines; amyloid beta load (e.g., plaque burden); and memory in a fear conditioning task for memory formation. […]

[2] = tested on: circulating cytokines in plasma of PSAPP mice; test: Circulating cytokine levels in plasma of PSAPP mice (multiplex); type: in vivo, mouse; conditions: vs vehicle
Protocol: As part of the study described in Example 16, the levels of numerous cytokines in plasma of mice treated with vehicle or compound 5 were also evaluated. As described in Example 16, treatment was initiated when the mice were approximately 3 months old. PSAPP mice were treated for 100 days with daily injections of 10 μg/kg of compound 5 or vehicle. Following treatment and the fear conditioning task experiment, plasma was taken for multiplex cytokine analysis of circulating cytokine levels in vehicle-treated versus compound-treated PSAPP mice. Cytokine levels are assayed using a multi-plex system where beads are labelled with capture antibody specific for each analyte tested. Each bead set is coupled to a specific capture antibody and is distinguishable from beads coupled to a different capture antibody. Thus, the levels of each analyte can be evaluated and distinguished. […] In FIGS. 10-13, compound 5 is indicated along the x-axis as “compound”.
In this study, treatment of PSAPP mice commenced when the mice were pre-symptomatic. Specifically, treatment was initiated when the mice were approximately 3 months old. PSAPP mice were treated for 100 days with daily, intraperitoneal injections of 10 μg/kg of compound 5 or vehicle. Following treatment, mice were assessed for the following: concentration of circulating pro-inflammatory cytokines; amyloid beta load (e.g., plaque burden); and memory in a fear conditioning task for memory formation. The data provided in Example 18 is for 18 vehicle treated mice and 20 compound treated mice. The data provided for the vehicle-treated group is the average across those mice, and error bars depict the standard error (SEM). Similarly, the data provided for the compound-treated group is the average across those mice, and the error bars depict the SEM. Mice were first evaluated in the fear conditioning task experiment. Subsequently, plasma was taken for multiplex cytokine analysis of circulating levels of cytokine in the plasma. Finally, plaque burden was assessed in the cortex and hippocampus of the mice.
In this study, treatment of PSAPP mice commenced after the mice were already symptomatic. Specifically, treatment was initiated when the mice were approximately 6 months old. PSAPP mice were treated for 7 days with daily, intraperitoneal injections of 10 μg/kg of compound 5 or vehicle. Following treatment, mice were assessed for the following: concentration of circulating pro-inflammatory cytokines; amyloid beta load (e.g., plaque burden); and plaque size. The data provided in Example 19 is for 7 vehicle treated mice and 7 compound treated mice. The data provided for the vehicle-treated group is the average across those mice, and error bars depict the standard error (SEM). Similarly, the data provided for the compound-treated group is the average across those mice, and the error bars depict the SEM. Plasma was taken for multiplex cytokine analysis of circulating levels of cytokine in the plasma. Subsequently, plaque burden was assessed in the cortex (using Aβ40) and hippocampus (using Aβ42) of the mice, and plaque size was also assessed.

[3] = Cmax after effective dose of compound 5; conditions: mouse, in vivo, 10 ug/kg; effective dose of 10 μg/kg
[4] = tested on: PSAPP mice; test: Plaque load in cortex and hippocampus by amyloid beta immunostaining; type: in vivo, mouse; conditions: 10 μg/kg i.p. once per day for 7 days; PS1/APP mice 26 weeks; cortex; FIG. 6B
[5] = 10 μg/kg daily for 100 days, Example 18
[6] = 10 μg/kg daily for 100 days, Example 18, FIG. 10
[7] = 10 μg/kg i.p. daily for 7 days from ~6 months (symptomatic), Example 20, FIG. 16
[8] = 10 μg/kg i.p. daily for 100 days from ~3 months, Example 19, FIG. 14

Compound: O=c1ccn([C@@H]2O[C@H](CO)C(O)C2O)c(=O)n1Cc1noc2ccccc12 (stereo in doubt) [compound 5]
- freezing time in contextual fear memory test ([1]; 10 μg/kg i.p. daily for 100 days from ~3 months of age, Example 17, FIG. 8): statistically significant increase
- freezing time in contextual fear memory test ([1]; 10 μg/kg i.p. daily for 100 days from ~3 months, Example 19, FIG. 15(C)): statistically significant increase
- average plasma level of IFN-r [2, 5]: reduced
- average plasma level of IL-1β [2, 5]: reduced
- average plasma level of IL-2 [2, 5]: reduced
- average plasma level of IL-3 [2, 5]: reduced
- average plasma level of IL-5 [2, 5]: reduced
- average plasma level of IL-6 [2, 5]: reduced
- average plasma level of IL-7 [2, 5]: reduced
- average plasma level of IL-9 [2, 5]: reduced
- average plasma level of IL-13 [2, 5]: reduced
- average plasma level of IL-17 [2, 5]: reduced
- average plasma level of LIF [2, 5]: reduced
- average plasma level of MIP-1α [2, 5]: reduced
- average plasma level of MIP-1β [2, 5]: reduced
- plasma level of Eotaxin [2, 5]: no or substantially no change
- plasma level of G-CSF [2, 5]: no or substantially no change
- plasma level of GM-CSF [2, 5]: no or substantially no change
- plasma level of IL-1α [2, 5]: no or substantially no change
- plasma level of IP-10 [2, 5]: no or substantially no change
- plasma level of LIX [2, 5]: no or substantially no change
- plasma level of M-CSF [2, 5]: no or substantially no change
- plasma level of MCP-1 [2, 5]: no or substantially no change
- plasma level of MIP-2 [2, 5]: no or substantially no change
- plasma level of IL-4 [2, 6]: statistically significant reduction
- plasma level of IL-10 [2, 6]: statistically significant reduction
- plasma level of IL-12 (IL-12(p70)) [2, 6]: statistically significant reduction
- plasma level of IL-12(p40) (p40 subunit alone) [2, 6]: does not reflect a change
- plasma level of IL-10 [2, 7]: statistically significant reduction
- plasma level of IL-12 (IL-12(p70)) [2, 7]: statistically significant reduction
- plasma level of IL-13 [2, 7]: statistically significant reduction
- plasma level of IL-17 [2, 7]: statistically significant reduction
- plasma level of MIP-1a [2, 7]: statistically significant reduction
- plasma level of MIP-1b [2, 7]: statistically significant reduction
- plasma level of TNFα [2, 7]: statistically significant reduction
- plasma level of IL-2 [2, 8]: statistically significant reduction
- plasma level of IL-4 [2, 8]: statistically significant reduction
- plasma level of IL-10 [2, 8]: statistically significant reduction
- plasma level of IL-12 (IL-12(p70)) [2, 8]: statistically significant reduction
- plasma level of IL-13 [2, 8]: statistically significant reduction
- plasma level of IL-17 [2, 8]: statistically significant reduction
- plasma level of MIP-1a [2, 8]: statistically significant reduction
- plasma level of MIP-1b [2, 8]: statistically significant reduction
- Cmax [3]: 13 nM
- Aβ42 plaque burden [4]: significantly reduced
